Experiments:
hKDR = biological target: T1, hKDR (Homo sapiens, UniProt P35968); assay: Cerep LANCE kinase assay hKDR (S1 assay 32); type: biochemical; settings: for hKDR LANCE IC50/EC50: assay number 32
T1 construct: purchased Cerep (LANCE kinase assay platform, contract assay)

SNU-C1 = assay: cells; type: cell-based; settings: for Basal_Viability ATP SNU-C1 IC50/EC50: assay number 30
[1] = tested on: endothelial tube formation in co-cultures of ECFCs and ADSCs treated with VEGF; assay: cells; type: cell-based, human
RKO = assay: cells; type: cell-based; settings: for Basal_Viability ATP RKO IC50/EC50: assay number 29
HT-29 = assay: cells; type: cell-based; settings: for Basal_Viability ATP HT-29 IC50/EC50: assay number 28
hJAK2 = biological target: T2, hJAK2 (Homo sapiens, UniProt O60674); assay: Cerep LANCE kinase assay hJAK2 (S1 assay 33); type: biochemical; settings: for hJAK2 LANCE IC50/EC50: assay number 33
T2 construct: purchased Cerep (LANCE kinase assay platform, contract assay)

hp70S6K1 (RPS6KB1) = biological target: T3, hp70S6K1 (RPS6KB1) (Homo sapiens, UniProt P23443); assay: Cerep LANCE kinase assay hp70S6K1 (S1 assay 31); type: biochemical; settings: for hp70S6K1 LANCE IC50/EC50: assay number 31
T3 construct: purchased Cerep (LANCE kinase assay platform, contract assay)

hGSK3b = biological target: T4, hGSK3b (Homo sapiens, UniProt P49841); assay: Cerep LANCE kinase assay hGSK3b (S1 assay 34); type: biochemical; settings: for hGSK3b LANCE IC50/EC50: assay number 34
T4 construct: purchased Cerep (LANCE kinase assay platform, contract assay)

INS-1E cells = assay: cells; type: cell-based, rat; settings: assay number 8; 5 mM glucose;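 note: secreted insulin quantified by homogeneous immunoassay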
[2] = tested on: alkaline phosphatase (ALP) activity in C2C12 cells; type: cell-based; settings: concentration response; for WntCondMedia_Alk Phos C2C12 IC50/EC50: assay number 6
hFLT3 = biological target: T5, hFLT3 (Homo sapiens, UniProt P36888); assay: Cerep LANCE kinase assay hFLT3 (S1 assay 35); type: biochemical; settings: for hFLT3 LANCE IC50/EC50: assay number 35
T5 construct: purchased Cerep (LANCE kinase assay platform, contract assay)

HeLa cells = assay: cells; type: cell-based; settings: for Hela CellCycMod PI 2N IC50/EC50: assay number 14; for Hela CellCycMod PI S Phase IC50/EC50: assay number 15; for Hela CellCycMod PI 4N IC50/EC50: assay number 16; for Hela CellCycMod PI MI IC50/EC50: assay number 17; for Hela CellCycMod PI Cell Number IC50/EC50: assay number 18
Colo320 = assay: cells; type: cell-based; settings: for Basal_Viability ATP Colo 320 IC50/EC50: assay number 27
DLD-1 = assay: cells; type: cell-based; settings: for Basal_Viability ATP DLD-1 IC50/EC50: assay number 23
[3] = tested on: ECFC/ADSC co-culture cell nuclei number
[4] = tested on: nuclear β-catenin in C2C12 cells; assay: cells; type: cell-based; settings: concentration response; for WntCondMedia_bCatenin C2C12 IC50/EC50: assay number 5
[5] = tested on: HCT116 cells treated with a GSK3β inhibitor; assay: cells; type: cell-based; settings: for GSK3b inh pretreated_Viability ATP HCT116 IC50/EC50: assay number 26, GSK3b inhibitor pretreated
SW480 = assay: cells; type: cell-based; settings: for Basal_Viability ATP SW480 IC50/EC50: assay number 24
NCI-H716 cells = assay: cells; type: cell-based, Human; settings: for hNCI-H716 GLP1 Secretion IC50/EC50: assay number 12
STC-1 cell line = type: cell-based, mouse; settings: for mSTC-1 GLP1 Secretion IC50/EC50: assay number 13
HCT116 = assay: cells; type: cell-based; settings: basal; for Basal_Viability ATP HCT116 IC50/EC50: assay number 25

T3 sequence (P23443 whole entry): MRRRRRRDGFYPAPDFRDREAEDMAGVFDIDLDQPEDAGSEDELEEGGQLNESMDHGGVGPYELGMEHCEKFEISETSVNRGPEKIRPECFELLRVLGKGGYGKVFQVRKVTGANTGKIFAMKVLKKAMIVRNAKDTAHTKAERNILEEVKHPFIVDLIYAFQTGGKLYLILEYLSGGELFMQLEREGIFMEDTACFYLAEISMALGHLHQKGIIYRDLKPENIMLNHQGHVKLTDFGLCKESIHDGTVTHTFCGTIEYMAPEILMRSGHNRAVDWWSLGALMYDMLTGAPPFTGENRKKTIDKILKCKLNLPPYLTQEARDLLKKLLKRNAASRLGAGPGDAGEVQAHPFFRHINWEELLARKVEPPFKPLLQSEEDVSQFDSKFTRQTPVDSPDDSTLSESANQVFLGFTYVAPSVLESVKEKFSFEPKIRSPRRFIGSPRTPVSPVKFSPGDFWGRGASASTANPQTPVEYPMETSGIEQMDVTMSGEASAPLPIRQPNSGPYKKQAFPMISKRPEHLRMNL
T1 sequence (P35968 20-1356): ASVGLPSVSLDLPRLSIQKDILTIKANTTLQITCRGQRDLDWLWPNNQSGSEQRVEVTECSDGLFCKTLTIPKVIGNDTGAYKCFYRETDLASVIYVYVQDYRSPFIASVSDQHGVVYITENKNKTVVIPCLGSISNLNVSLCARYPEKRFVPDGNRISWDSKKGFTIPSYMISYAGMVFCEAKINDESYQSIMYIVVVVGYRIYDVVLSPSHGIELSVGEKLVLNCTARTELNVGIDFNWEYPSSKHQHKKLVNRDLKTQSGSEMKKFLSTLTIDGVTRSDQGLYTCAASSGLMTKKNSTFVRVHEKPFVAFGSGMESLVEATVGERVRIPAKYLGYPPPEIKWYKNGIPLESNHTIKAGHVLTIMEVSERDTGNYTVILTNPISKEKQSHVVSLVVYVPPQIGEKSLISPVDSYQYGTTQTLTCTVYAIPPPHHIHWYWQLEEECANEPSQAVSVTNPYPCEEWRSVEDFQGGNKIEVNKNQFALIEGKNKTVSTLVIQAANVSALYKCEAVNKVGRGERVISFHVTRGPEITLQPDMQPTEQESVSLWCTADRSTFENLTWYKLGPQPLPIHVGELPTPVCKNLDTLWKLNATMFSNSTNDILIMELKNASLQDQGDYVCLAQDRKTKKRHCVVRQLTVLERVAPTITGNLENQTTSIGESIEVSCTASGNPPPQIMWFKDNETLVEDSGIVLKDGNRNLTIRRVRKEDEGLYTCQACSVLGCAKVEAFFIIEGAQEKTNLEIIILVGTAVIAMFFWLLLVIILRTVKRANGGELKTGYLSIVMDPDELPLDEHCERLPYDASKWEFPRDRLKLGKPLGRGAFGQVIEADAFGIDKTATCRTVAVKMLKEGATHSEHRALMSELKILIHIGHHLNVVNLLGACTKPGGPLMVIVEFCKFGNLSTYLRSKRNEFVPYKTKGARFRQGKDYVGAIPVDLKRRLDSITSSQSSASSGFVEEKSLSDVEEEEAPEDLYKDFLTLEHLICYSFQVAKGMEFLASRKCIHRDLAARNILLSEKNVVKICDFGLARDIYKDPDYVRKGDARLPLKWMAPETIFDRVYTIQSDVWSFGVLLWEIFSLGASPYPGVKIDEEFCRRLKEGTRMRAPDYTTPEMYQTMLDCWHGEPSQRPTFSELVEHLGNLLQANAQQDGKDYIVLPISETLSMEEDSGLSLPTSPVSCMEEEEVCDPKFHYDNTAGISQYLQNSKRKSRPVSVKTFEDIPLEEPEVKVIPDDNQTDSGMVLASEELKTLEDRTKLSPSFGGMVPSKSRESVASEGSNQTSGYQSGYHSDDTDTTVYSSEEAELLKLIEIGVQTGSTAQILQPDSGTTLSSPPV
T2 sequence (O60674 whole entry): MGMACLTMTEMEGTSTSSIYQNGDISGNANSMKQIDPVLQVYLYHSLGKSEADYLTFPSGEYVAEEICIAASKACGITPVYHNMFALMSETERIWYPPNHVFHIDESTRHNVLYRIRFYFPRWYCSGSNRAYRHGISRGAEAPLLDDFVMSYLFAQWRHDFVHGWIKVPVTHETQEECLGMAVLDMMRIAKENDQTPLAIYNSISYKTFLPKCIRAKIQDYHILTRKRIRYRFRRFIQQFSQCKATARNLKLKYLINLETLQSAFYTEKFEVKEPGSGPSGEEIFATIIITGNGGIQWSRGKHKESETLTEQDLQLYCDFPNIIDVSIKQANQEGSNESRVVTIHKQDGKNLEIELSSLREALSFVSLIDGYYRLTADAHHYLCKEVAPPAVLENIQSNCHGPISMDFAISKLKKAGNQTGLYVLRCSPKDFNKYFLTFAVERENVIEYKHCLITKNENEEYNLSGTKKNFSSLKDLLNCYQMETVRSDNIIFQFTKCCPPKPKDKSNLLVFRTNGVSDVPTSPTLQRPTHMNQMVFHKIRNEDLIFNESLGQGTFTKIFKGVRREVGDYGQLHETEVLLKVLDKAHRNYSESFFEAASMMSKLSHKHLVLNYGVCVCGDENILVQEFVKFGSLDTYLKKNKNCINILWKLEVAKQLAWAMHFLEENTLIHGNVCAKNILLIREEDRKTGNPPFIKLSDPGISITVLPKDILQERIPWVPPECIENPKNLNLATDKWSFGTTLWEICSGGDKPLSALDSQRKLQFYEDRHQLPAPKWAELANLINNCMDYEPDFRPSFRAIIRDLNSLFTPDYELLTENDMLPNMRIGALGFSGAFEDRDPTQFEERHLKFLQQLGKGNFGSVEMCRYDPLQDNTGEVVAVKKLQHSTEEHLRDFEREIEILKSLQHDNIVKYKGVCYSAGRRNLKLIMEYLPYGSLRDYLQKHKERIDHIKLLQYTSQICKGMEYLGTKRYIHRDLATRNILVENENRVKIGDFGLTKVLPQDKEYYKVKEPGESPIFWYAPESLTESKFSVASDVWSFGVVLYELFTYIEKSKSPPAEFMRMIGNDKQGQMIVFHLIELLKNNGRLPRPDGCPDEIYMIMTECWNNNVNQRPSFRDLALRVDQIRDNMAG
T4 sequence (P49841 whole entry): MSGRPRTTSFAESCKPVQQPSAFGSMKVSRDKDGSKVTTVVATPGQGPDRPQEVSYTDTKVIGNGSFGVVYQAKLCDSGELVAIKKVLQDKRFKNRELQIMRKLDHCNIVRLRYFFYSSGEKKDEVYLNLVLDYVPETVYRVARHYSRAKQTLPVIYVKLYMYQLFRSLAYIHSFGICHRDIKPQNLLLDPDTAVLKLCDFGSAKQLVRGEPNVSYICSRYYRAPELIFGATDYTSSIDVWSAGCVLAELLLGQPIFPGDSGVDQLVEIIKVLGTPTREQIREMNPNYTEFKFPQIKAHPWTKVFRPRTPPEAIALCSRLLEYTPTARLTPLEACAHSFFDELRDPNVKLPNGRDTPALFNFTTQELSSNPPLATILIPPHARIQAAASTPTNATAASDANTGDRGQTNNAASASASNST
T5 sequence (P36888 27-993): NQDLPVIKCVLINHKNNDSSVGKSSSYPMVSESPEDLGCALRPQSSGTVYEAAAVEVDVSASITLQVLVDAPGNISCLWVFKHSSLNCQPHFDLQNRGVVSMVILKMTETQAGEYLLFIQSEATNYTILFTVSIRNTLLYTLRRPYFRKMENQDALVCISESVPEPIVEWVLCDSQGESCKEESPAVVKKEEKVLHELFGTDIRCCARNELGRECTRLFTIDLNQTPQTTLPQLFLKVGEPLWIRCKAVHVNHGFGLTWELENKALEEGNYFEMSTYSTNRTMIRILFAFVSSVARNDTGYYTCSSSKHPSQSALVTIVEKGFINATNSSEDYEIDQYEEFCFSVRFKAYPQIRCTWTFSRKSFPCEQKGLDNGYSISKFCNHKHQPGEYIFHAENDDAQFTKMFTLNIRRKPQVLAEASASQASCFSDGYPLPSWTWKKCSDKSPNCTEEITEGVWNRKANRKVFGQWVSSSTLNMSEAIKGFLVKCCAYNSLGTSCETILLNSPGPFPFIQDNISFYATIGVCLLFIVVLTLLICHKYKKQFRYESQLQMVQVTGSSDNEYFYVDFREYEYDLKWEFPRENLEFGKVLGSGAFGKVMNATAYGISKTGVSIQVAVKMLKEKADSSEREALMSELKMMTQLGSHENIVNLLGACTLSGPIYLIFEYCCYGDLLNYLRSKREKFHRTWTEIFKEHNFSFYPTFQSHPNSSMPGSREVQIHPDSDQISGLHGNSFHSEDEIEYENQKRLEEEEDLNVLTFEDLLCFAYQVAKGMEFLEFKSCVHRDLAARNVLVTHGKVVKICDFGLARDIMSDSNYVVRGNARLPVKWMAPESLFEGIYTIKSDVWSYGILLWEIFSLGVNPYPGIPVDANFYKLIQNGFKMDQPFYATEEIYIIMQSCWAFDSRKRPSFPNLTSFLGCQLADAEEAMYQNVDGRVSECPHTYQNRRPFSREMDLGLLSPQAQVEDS

CC(=O)Oc1ccc(C2(c3ccc(OC(C)=O)cc3)Oc3ccccc3NC2=O)cc1 [NCGC00182998-01]
hKDR LANCE IC50/EC50 (hKDR): > 20 µM | Basal_Viability ATP SNU-C1 IC50/EC50 (SNU-C1): > 20 µM | VEGF_ADSC\ECFC Angio CD31 TubeArea IC50/EC50 [1]: 2.2736 µM | Basal_Viability ATP RKO IC50/EC50 (RKO): 9.2255 µM | Basal_Viability ATP HT-29 IC50/EC50 (HT-29): > 20 µM | hJAK2 LANCE IC50/EC50 (hJAK2): > 20 µM | hp70S6K1 LANCE IC50/EC50 (hp70S6K1 (RPS6KB1)): > 20 µM | hGSK3b LANCE IC50/EC50 (hGSK3b): > 20 µM | 5mMGluc_INS1E SecretionMod IC50/EC50 (INS-1E cells): > 33.33 µM | WntCondMedia_Alk Phos C2C12 IC50/EC50 [2]: 13.9611 µM | hFLT3 LANCE IC50/EC50 (hFLT3): > 20 µM | Hela CellCycMod PI 2N IC50/EC50 (HeLa cells; 2N): > 10 µM | Hela CellCycMod PI S Phase IC50/EC50 (HeLa cells): > 10 µM | Hela CellCycMod PI 4N IC50/EC50 (HeLa cells; 4N): > 10 µM | Hela CellCycMod PI MI IC50/EC50 (HeLa cells; MI): > 10 µM | Hela CellCycMod PI Cell Number IC50/EC50 (HeLa cells): 5.7532 µM | Basal_Viability ATP Colo 320 IC50/EC50 (Colo320): > 20 µM | Basal_Viability ATP DLD-1 IC50/EC50 (DLD-1): 19.7291 µM | VEGF_ADSC\ECFC Angio Hoechst NucArea IC50/EC50 [3]: > 10 µM | WntCondMedia_bCatenin C2C12 IC50/EC50 [4]: > 20 µM | GSK3b inh pretreated_Viability ATP HCT116 IC50/EC50 [5]: 3.2604 µM | Basal_Viability ATP SW480 IC50/EC50 (SW480): 9.1881 µM

Cc1cc2c(C(C)C)c(O)c(O)c(C=O)c2c(O)c1-c1c(C)cc2c(C(C)C)c(O)c(O)c(C=O)c2c1O [NCGC00016423-15]
hKDR LANCE IC50/EC50 (hKDR): > 20 µM | Basal_Viability ATP SNU-C1 IC50/EC50 (SNU-C1; basal): 0.3538 µM | Basal_Viability ATP RKO IC50/EC50 (RKO; basal): 0.9156 µM | Basal_Viability ATP HT-29 IC50/EC50 (HT-29; basal): 1.4237 µM | hJAK2 LANCE IC50/EC50 (hJAK2): > 20 µM | hp70S6K1 LANCE IC50/EC50 (hp70S6K1 (RPS6KB1)): > 20 µM | hGSK3b LANCE IC50/EC50 (hGSK3b): > 20 µM | WntCondMedia_Alk Phos C2C12 IC50/EC50 [2]: > 20 µM | hNCI-H716 GLP1 Secretion IC50/EC50 (NCI-H716 cells): 23.4306 µM | hFLT3 LANCE IC50/EC50 (hFLT3): > 20 µM | Hela CellCycMod PI 2N IC50/EC50 (HeLa cells; 2N): > 10 µM | Hela CellCycMod PI S Phase IC50/EC50 (HeLa cells): > 10 µM | Hela CellCycMod PI 4N IC50/EC50 (HeLa cells; 4N): > 10 µM | Hela CellCycMod PI MI IC50/EC50 (HeLa cells; MI): > 10 µM | Hela CellCycMod PI Cell Number IC50/EC50 (HeLa cells): 3.7083 µM | Basal_Viability ATP Colo 320 IC50/EC50 (Colo320; basal): 1.3794 µM | Basal_Viability ATP DLD-1 IC50/EC50 (DLD-1; basal): 0.8345 µM | mSTC-1 GLP1 Secretion IC50/EC50 (STC-1 cell line): > 40 µM | Basal_Viability ATP HCT116 IC50/EC50 (HCT116): 0.7844 µM | WntCondMedia_bCatenin C2C12 IC50/EC50 [4]: 3.4859 µM | Basal_Viability ATP SW480 IC50/EC50 (SW480; basal): 0.9563 µM

COC(=O)Nc1nc2ccc(Sc3ccccc3)cc2[nH]1 [NCGC00016855-10]
IC50/EC50, hKDR LANCE (assay number 32) (hKDR): > 20 µM | IC50/EC50, Basal_Viability ATP SNU-C1 (assay number 30) (SNU-C1; basal): > 20 µM | IC50/EC50, VEGF_ADSC\ECFC Angio CD31 TubeArea (assay number 2) [1]: 0.2067 µM | IC50/EC50, Basal_Viability ATP RKO (assay number 29) (RKO; basal): 0.001 µM | IC50/EC50, Basal_Viability ATP HT-29 (assay number 28) (HT-29; basal): > 20 µM | IC50/EC50, hJAK2 LANCE (assay number 33) (hJAK2): > 20 µM | IC50/EC50, hp70S6K1 LANCE (assay number 31) (hp70S6K1 (RPS6KB1)): > 20 µM | IC50/EC50, hGSK3b LANCE (assay number 34) (hGSK3b): > 20 µM | IC50/EC50, WntCondMedia_Alk Phos C2C12 (assay number 6) [2]: 0.4382 µM | IC50/EC50, hNCI-H716 GLP1 Secretion (assay number 12) (NCI-H716 cells; concentration response): > 40 µM | IC50/EC50, hFLT3 LANCE (assay number 35) (hFLT3): > 20 µM | IC50/EC50, Hela CellCycMod PI 2N (assay number 14) (HeLa cells; 2N): 0.2042 µM | IC50/EC50, Hela CellCycMod PI 4N (assay number 16) (HeLa cells; 4N): 0.195 µM | IC50/EC50, Hela CellCycMod PI Cell Number (assay number 18) (HeLa cells; Cell Number): 0.0097 µM | IC50/EC50, Hela CellCycMod PI MI (assay number 17) (HeLa cells; MI): 0.2276 µM | IC50/EC50, Hela CellCycMod PI S Phase (assay number 15) (HeLa cells; S Phase): > 10 µM | IC50/EC50, Basal_Viability ATP Colo 320 (assay number 27) (Colo320; basal): > 20 µM | IC50/EC50, Basal_Viability ATP DLD-1 (assay number 23) (DLD-1; basal): 0.06726 µM | IC50/EC50, mSTC-1 GLP1 Secretion (assay number 13) (STC-1 cell line; concentration response): > 20 µM | IC50/EC50, VEGF_ADSC\ECFC Angio Hoechst NucArea (assay number 3) [3]: > 10 µM | IC50/EC50, Basal_Viability ATP HCT116 (assay number 25) (HCT116): 0.001 µM | IC50/EC50, WntCondMedia_bCatenin C2C12 (assay number 5) [4]: 4.8413 µM | IC50/EC50, GSK3b inh pretreated_Viability ATP HCT116 (assay number 26) ([5]; GSK3b inh pretreated): 0.003 µM | IC50/EC50, Basal_Viability ATP SW480 (assay number 24) (SW480; basal): > 20 µM

Cc1ccc([N+](=O)[O-])[c]2c1[O][Hg]2 [NCGC00249897-01]
hKDR LANCE IC50/EC50 (hKDR): 16.8 µM | Basal_Viability ATP SNU-C1 IC50/EC50 (SNU-C1; basal): 0.2022 µM | VEGF_ADSC\ECFC Angio CD31 TubeArea IC50/EC50 [1]: 0.6678 µM | Basal_Viability ATP HT-29 IC50/EC50 (HT-29; basal): 1.4429 µM | hJAK2 LANCE IC50/EC50 (hJAK2): > 20 µM | hp70S6K1 LANCE IC50/EC50 (hp70S6K1 (RPS6KB1)): > 20 µM | hGSK3b LANCE IC50/EC50 (hGSK3b): 8.37 µM | 5mMGluc_INS1E SecretionMod IC50/EC50 (INS-1E cells): > 33.33 µM | WntCondMedia_Alk Phos C2C12 IC50/EC50 [2]: 0.1552 µM | hNCI-H716 GLP1 Secretion IC50/EC50 (NCI-H716 cells): 9.871 µM | hFLT3 LANCE IC50/EC50 (hFLT3): 10.38 µM | Hela CellCycMod PI 2N IC50/EC50 (HeLa cells; 2N): > 10 µM | Hela CellCycMod PI 4N IC50/EC50 (HeLa cells; 4N): > 10 µM | Hela CellCycMod PI MI IC50/EC50 (HeLa cells; MI): 1.2179 µM | Hela CellCycMod PI Cell Number IC50/EC50 (HeLa cells): 0.3851 µM | Basal_Viability ATP Colo 320 IC50/EC50 (Colo320; basal): 0.935 µM | Basal_Viability ATP DLD-1 IC50/EC50 (DLD-1; basal): 1.6221 µM | mSTC-1 GLP1 Secretion IC50/EC50 (STC-1 cell line): 0.0972 µM | VEGF_ADSC\ECFC Angio Hoechst NucArea IC50/EC50 [3]: 1.087 µM | Basal_Viability ATP HCT116 IC50/EC50 (HCT116): 2.8299 µM | WntCondMedia_bCatenin C2C12 IC50/EC50 [4]: 1.5133 µM | GSK3b inh pretreated_Viability ATP HCT116 IC50/EC50 [5]: > 2.2222 µM | Basal_Viability ATP SW480 IC50/EC50 (SW480; basal): 1.1294 µM
